In patent US20030162751A1, “Pharmaceutical composition comprising 5' monophosphate ester of riboflavin and solubilized riboflavin” (priority 2001, published 2003):
Values after ≈ are worked out from the molar mass of the structure shown. Where two headings read alike, the source gives them in different places.

Key:
[1] = Solubility of riboflavin as a function of pH and % FMN; format: physicochemical
Excerpt: The intrinsic solubility of riboflavin is approximately 70 mcg/ml (see plot below with no FMN present). Precipitation is expected to occur if riboflavin reaches a level above this (due to riboflavin in drug substance or due to degradation to riboflavin with time), and precipitation would be unacceptable for patient safety with intravenous use.
Solubility of Riboflavin as a function of pH and % FMN [formula]
At 1% FMN, up to 365 mcg/ml of riboflavin can dissolve.

[2] = Solubilization of lumichrome in the FMN formulation; format: physicochemical; conditions: in the current FMN formulation

SMILES | solubility ([1]; 1% FMN solution, aqueous with cosolvent or surfactant or cyclodextrin, read-out: riboflavin solubility (amount that can dissolve)) [µg/mL] | solubility ([1]; 5% FMN solution, aqueous with cosolvent or surfactant or cyclodextrin, 5% FMN, pH 7-8, read-out: riboflavin solubility (amount that can dissolve)) [µg/mL] | intrinsic (equilibrium) solubility of riboflavin ([1]; no FMN present) | solubility ([1]; no FMN present, read-out: intrinsic (equilibrium) solubility of riboflavin) [µg/mL] | solubility of lumichrome relative to equilibrium solubility [2]
Cc1cc2nc3c(=O)[nH]c(=O)nc-3n(C[C@H](O)[C@H](O)[C@H](O)CO)c2cc1C [riboflavin] | ≤ 365 | ≤ 1320 | approximately 70 mcg/ml | ~70 (≈ 186 µM) | –
Cc1cc2nc3[nH]c(=O)[nH]c(=O)c3nc2cc1C [lumichrome] | – | – | – | – | dissolve at levels above the equilibrium solubility
